In PMC4546632, “Active Transport of Phosphorylated Carbohydrates Promotes Intestinal Colonization and Transmission of a Bacterial Pathogen” (PLoS Pathogens, 2015) one finds Kd data, which are given here for four compounds.

What all share (conditions): 20 mM Tris pH 8, 100 mM NaCl
For experiment [1], the target named is T1, AfuA (Actinobacillus pleuropneumoniae, UniProt A3N294).
T1 construct: pET26b, periplasmic expression in E. coli (osmotic shock), N-terminal 6xHis tag cleaved by thrombin
As to the kind of experiment: isothermal titration calorimetry. The experiment is classed as binding. An excerpt: isothermal titration calorimetry on AfuA

A further experiment concerns the target T2, C. rodentium AfuA (Citrobacter rodentium, UniProt D2TKU7).
T2 construct: recombinant AfuA; construct details only in supplement
Briefly: isothermal titration calorimetry. The experiment is classed as binding. An excerpt: isothermal titration calorimetry on C. rodentium AfuA | These amounts exceed the Kd of C. rodentium AfuA for G6P or F6P
On the technique in general: ITC needs no label: the signal is the heat of the interaction.

Experiment [2] addresses AfuA (Actinobacillus pleuropneumoniae, UniProt A3N294, S64D).
The target of experiment [3] is AfuA (Actinobacillus pleuropneumoniae, UniProt A3N294, S64A).
Sequence of AfuA (Actinobacillus pleuropneumoniae, UniProt A3N294, S64A) (A3N294 28-346 S64A): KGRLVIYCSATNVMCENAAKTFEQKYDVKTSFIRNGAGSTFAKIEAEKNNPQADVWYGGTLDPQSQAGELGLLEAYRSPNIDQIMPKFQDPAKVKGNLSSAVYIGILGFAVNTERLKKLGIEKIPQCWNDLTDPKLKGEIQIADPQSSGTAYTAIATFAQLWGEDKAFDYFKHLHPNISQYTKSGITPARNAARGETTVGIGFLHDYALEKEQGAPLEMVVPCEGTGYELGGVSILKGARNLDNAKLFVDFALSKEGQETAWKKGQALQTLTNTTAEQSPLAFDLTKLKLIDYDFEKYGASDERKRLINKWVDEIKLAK
Experiment [4] addresses AfuA (Actinobacillus pleuropneumoniae, UniProt A3N294, T177A).

Like-named read-outs stand apart in the source and are kept apart here.

T1 sequence (A3N294 entry or part of it): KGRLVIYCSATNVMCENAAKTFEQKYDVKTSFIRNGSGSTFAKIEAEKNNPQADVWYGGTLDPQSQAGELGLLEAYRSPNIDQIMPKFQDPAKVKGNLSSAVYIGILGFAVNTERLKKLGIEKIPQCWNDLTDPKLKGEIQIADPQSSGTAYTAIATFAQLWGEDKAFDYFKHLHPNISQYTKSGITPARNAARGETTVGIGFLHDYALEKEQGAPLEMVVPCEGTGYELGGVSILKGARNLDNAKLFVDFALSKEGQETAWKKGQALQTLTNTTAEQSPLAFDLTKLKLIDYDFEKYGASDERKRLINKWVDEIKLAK
Sequence of AfuA (Actinobacillus pleuropneumoniae, UniProt A3N294, S64D) (A3N294 28-346 S64D): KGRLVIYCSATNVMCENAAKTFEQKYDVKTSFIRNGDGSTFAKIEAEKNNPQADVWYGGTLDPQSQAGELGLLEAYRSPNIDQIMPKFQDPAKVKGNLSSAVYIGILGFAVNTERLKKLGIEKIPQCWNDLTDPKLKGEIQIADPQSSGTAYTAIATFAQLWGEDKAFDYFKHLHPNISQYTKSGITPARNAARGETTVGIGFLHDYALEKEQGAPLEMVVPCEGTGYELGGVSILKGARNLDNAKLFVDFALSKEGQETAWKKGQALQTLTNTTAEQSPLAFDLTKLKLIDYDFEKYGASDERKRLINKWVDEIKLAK
T2 sequence (D2TKU7 entry or part of it): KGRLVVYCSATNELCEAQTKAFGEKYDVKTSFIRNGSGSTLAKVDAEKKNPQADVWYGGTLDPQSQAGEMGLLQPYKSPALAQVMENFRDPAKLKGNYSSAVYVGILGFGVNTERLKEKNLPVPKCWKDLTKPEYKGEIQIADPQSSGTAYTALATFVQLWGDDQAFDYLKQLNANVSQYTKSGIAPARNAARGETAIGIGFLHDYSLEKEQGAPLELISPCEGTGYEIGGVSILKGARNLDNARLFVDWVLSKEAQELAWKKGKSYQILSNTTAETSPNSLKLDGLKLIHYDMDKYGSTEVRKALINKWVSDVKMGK
Sequence of AfuA (Actinobacillus pleuropneumoniae, UniProt A3N294, T177A) (A3N294 28-346 T177A): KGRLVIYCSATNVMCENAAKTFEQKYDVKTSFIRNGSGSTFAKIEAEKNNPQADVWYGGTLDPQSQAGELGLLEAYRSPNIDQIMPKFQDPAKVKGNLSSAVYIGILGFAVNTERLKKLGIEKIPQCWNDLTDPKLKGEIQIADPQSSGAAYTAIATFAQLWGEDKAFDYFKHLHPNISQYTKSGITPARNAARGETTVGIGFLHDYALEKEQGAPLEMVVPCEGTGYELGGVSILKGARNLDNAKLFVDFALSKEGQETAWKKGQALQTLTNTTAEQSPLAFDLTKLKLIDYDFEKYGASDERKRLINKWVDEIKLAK

Broadly, the Kd is the equilibrium constant for the complex coming apart. For the compound `O=P(O)(O)OC[C@H]1OC(O)(CO)[C@@H](O)[C@@H]1O` (some centres unmarked) [Fructose-6-phosphate], the Kd at AfuA [1] (read-out: Kd) was 8 ± 1 nM.
Consider `O=P(O)(O)OC[C@H]1OC(O)[C@H](O)[C@@H](O)[C@@H]1O` (some centres unmarked) [Glucose-6-phosphate], for which the Kd at C. rodentium AfuA was determined as 164 ± 94 nM; at AfuA [1] (read-out: Kd) it was 23 ± 4 nM; on AfuA [2], 5500 ± 900 nM; on AfuA [3], 900 ± 100 nM; at AfuA [4], 3300 ± 200 nM.
Turning to `O=P(O)(O)OC[C@H]1OC(O)[C@@H](O)[C@@H](O)[C@@H]1O` (some centres unmarked) [Mannose-6-phosphate], at AfuA [1] (read-out: Kd), the Kd came to 960 ± 150 nM.
The compound `O=P(O)(O)OC[C@@H](O)[C@H]1OC(O)(CO)[C@@H](O)[C@@H]1O` (some centres unmarked) [Sedoheptulose-7-phosphate] yielded a Kd on AfuA [1] of 57 ± 22 nM.
